According to BigSolDB 2.1:

Conditions: in acetonitrile, 328.15 K

Row | SMILES | solubility (mole fraction)
1 | COc1cccc(-c2nn(-c3ccccc3)cc2/C=C/C(=O)c2nc3ccccc3[nH]2)c1 | 0.000122
2 | O=C(/C=C/c1cn(-c2ccccc2)nc1-c1ccc(Cl)cc1)c1nc2ccccc2[nH]1 | 0.000211
3 | O=C(/C=C/c1cn(-c2ccccc2)nc1-c1ccccc1Cl)c1nc2ccccc2[nH]1 | 0.000241
4 | COc1ccc(-c2nn(-c3ccccc3)cc2/C=C/C(=O)c2nc3ccccc3[nH]2)cc1 | 0.000329
5 | COc1ccc(-c2nn(-c3ccccc3)cc2/C=C/C(=O)c2nc3ccccc3[nH]2)cc1OC | 0.00023
6 | O=C(/C=C/c1cn(-c2ccccc2)nc1-c1cccc([N+](=O)[O-])c1)c1nc2ccccc2[nH]1 | 0.000232
7 | O=C(/C=C/c1cn(-c2ccccc2)nc1-c1ccccc1)c1nc2ccccc2[nH]1 | 0.000132

Same assay, conditions: in ethanol, 298.15 K

Row | SMILES | solubility (mole fraction)
8 | COc1cccc(-c2nn(-c3ccccc3)cc2/C=C/C(=O)c2nc3ccccc3[nH]2)c1 | 7.24e-05
9 | O=C(/C=C/c1cn(-c2ccccc2)nc1-c1ccc(Cl)cc1)c1nc2ccccc2[nH]1 | 0.000102
10 | O=C(/C=C/c1cn(-c2ccccc2)nc1-c1ccccc1Cl)c1nc2ccccc2[nH]1 | 0.000105
11 | COc1ccc(-c2nn(-c3ccccc3)cc2/C=C/C(=O)c2nc3ccccc3[nH]2)cc1 | 0.000352
12 | COc1ccc(-c2nn(-c3ccccc3)cc2/C=C/C(=O)c2nc3ccccc3[nH]2)cc1OC | 3.91e-05
13 | O=C(/C=C/c1cn(-c2ccccc2)nc1-c1cccc([N+](=O)[O-])c1)c1nc2ccccc2[nH]1 | 5.53e-05
14 | O=C(/C=C/c1cn(-c2ccccc2)nc1-c1ccccc1)c1nc2ccccc2[nH]1 | 8.48e-05

Same assay, conditions: in ethanol, 303.15 K

Row | SMILES | solubility (mole fraction)
15 | COc1cccc(-c2nn(-c3ccccc3)cc2/C=C/C(=O)c2nc3ccccc3[nH]2)c1 | 8.5e-05
16 | O=C(/C=C/c1cn(-c2ccccc2)nc1-c1ccc(Cl)cc1)c1nc2ccccc2[nH]1 | 0.000113
17 | O=C(/C=C/c1cn(-c2ccccc2)nc1-c1ccccc1Cl)c1nc2ccccc2[nH]1 | 0.000125
18 | COc1ccc(-c2nn(-c3ccccc3)cc2/C=C/C(=O)c2nc3ccccc3[nH]2)cc1 | 0.000372
19 | COc1ccc(-c2nn(-c3ccccc3)cc2/C=C/C(=O)c2nc3ccccc3[nH]2)cc1OC | 5e-05
20 | O=C(/C=C/c1cn(-c2ccccc2)nc1-c1cccc([N+](=O)[O-])c1)c1nc2ccccc2[nH]1 | 6.2e-05
21 | O=C(/C=C/c1cn(-c2ccccc2)nc1-c1ccccc1)c1nc2ccccc2[nH]1 | 9.4e-05

Same assay, conditions: in ethanol, 308.15 K

Row | SMILES | solubility (mole fraction)
22 | COc1cccc(-c2nn(-c3ccccc3)cc2/C=C/C(=O)c2nc3ccccc3[nH]2)c1 | 0.000106
23 | O=C(/C=C/c1cn(-c2ccccc2)nc1-c1ccc(Cl)cc1)c1nc2ccccc2[nH]1 | 0.00012
24 | O=C(/C=C/c1cn(-c2ccccc2)nc1-c1ccccc1Cl)c1nc2ccccc2[nH]1 | 0.000145
25 | COc1ccc(-c2nn(-c3ccccc3)cc2/C=C/C(=O)c2nc3ccccc3[nH]2)cc1 | 0.000385
26 | COc1ccc(-c2nn(-c3ccccc3)cc2/C=C/C(=O)c2nc3ccccc3[nH]2)cc1OC | 5.88e-05
27 | O=C(/C=C/c1cn(-c2ccccc2)nc1-c1cccc([N+](=O)[O-])c1)c1nc2ccccc2[nH]1 | 7.01e-05
28 | O=C(/C=C/c1cn(-c2ccccc2)nc1-c1ccccc1)c1nc2ccccc2[nH]1 | 0.000106

Same assay, conditions: in ethanol, 313.15 K

Row | SMILES | solubility (mole fraction)
29 | COc1cccc(-c2nn(-c3ccccc3)cc2/C=C/C(=O)c2nc3ccccc3[nH]2)c1 | 0.000121
30 | O=C(/C=C/c1cn(-c2ccccc2)nc1-c1ccc(Cl)cc1)c1nc2ccccc2[nH]1 | 0.000132
31 | O=C(/C=C/c1cn(-c2ccccc2)nc1-c1ccccc1Cl)c1nc2ccccc2[nH]1 | 0.000157
32 | COc1ccc(-c2nn(-c3ccccc3)cc2/C=C/C(=O)c2nc3ccccc3[nH]2)cc1 | 0.000399
33 | COc1ccc(-c2nn(-c3ccccc3)cc2/C=C/C(=O)c2nc3ccccc3[nH]2)cc1OC | 7.16e-05
34 | O=C(/C=C/c1cn(-c2ccccc2)nc1-c1cccc([N+](=O)[O-])c1)c1nc2ccccc2[nH]1 | 8.42e-05
35 | O=C(/C=C/c1cn(-c2ccccc2)nc1-c1ccccc1)c1nc2ccccc2[nH]1 | 0.000123

Same assay, conditions: in ethanol, 318.15 K

Row | SMILES | solubility (mole fraction)
36 | COc1cccc(-c2nn(-c3ccccc3)cc2/C=C/C(=O)c2nc3ccccc3[nH]2)c1 | 0.000136
37 | O=C(/C=C/c1cn(-c2ccccc2)nc1-c1ccc(Cl)cc1)c1nc2ccccc2[nH]1 | 0.000148
38 | O=C(/C=C/c1cn(-c2ccccc2)nc1-c1ccccc1Cl)c1nc2ccccc2[nH]1 | 0.000179
39 | COc1ccc(-c2nn(-c3ccccc3)cc2/C=C/C(=O)c2nc3ccccc3[nH]2)cc1 | 0.00042
40 | COc1ccc(-c2nn(-c3ccccc3)cc2/C=C/C(=O)c2nc3ccccc3[nH]2)cc1OC | 8.46e-05
41 | O=C(/C=C/c1cn(-c2ccccc2)nc1-c1cccc([N+](=O)[O-])c1)c1nc2ccccc2[nH]1 | 9.46e-05
42 | O=C(/C=C/c1cn(-c2ccccc2)nc1-c1ccccc1)c1nc2ccccc2[nH]1 | 0.000135

Same assay, conditions: in ethanol, 323.15 K

Row | SMILES | solubility (mole fraction)
43 | COc1cccc(-c2nn(-c3ccccc3)cc2/C=C/C(=O)c2nc3ccccc3[nH]2)c1 | 0.000148
